Assay: Arterial blood sampling and radiometabolite analysis after i.v. [^18F]UCB-H
Type: in vivo, cynomolgus monkeys (Macaca fascicularis)
Settings: for intact parent fraction: arterial blood
Procedure: All four non-human primates (NHP) underwent a 2-h (2 h) test and retest PET scan; two NHP underwent an additional 4-h (4 h) retest PET scan. Three NHP underwent one 4-h (4 h) displacement PET scan. Arterial blood sampling was performed during test and retest scans with PET imaging spaced by at least 3 weeks between each scan. To this end, the femoral artery opposite to the saphenous vein used for radioligand injection was cannulated. For the 2-h (2 h) scans, we collected in total 28 blood samples of 1 mL: 16 samples during the first 5 min followed by […] every 5 min and […] every 10 min. For the 4 h scans, we collected an additional 6 samples every 20 min during the last two hours (34 samples in total). Larger samples (2 – 3 mL) were collected at 5, 15, 30, 60, 90, 120 min (2 h) and at 180, 240 min (4 h) for metabolite analysis. Displacement of [^18F]UCB-H was done by intravenous (IV) administration 90 min after [^18F]UCB-H injection of a bolus of 30 mg/kg LEV, or of 80 µg/kg (≈250 nmol/kg) or 5 mg/kg (≈15 µmol/kg) of cold [^19F]-UCB-H. Full experimental design of all NHP is outlined in Additional file 1: Table 1.
Plasma was separated from whole-blood by centrifugation (5 min, 2054xg, 4 °C) and 50 µL of plasma and whole-blood were counted using a PET cross-calibrated gamma well counter (WIZARD^2, PerkinElmer, France) to obtain the whole-blood and plasma activity curves. All data were corrected for radioactive decay from the injection time. For the larger blood samples, 500 µL plasma was deproteinized with acetonitrile. The supernatant was injected in high-performance liquid chromatography, equipped with an Atlantis® T3 5 μm 4.6 × 150 mm column (Waters) and an Atlantis® T3 5 μm 3.9 × 5 mm pre-column (Waters), with an LB-513 radioactivity flow detector (Berthold, La Garenne Colombes, France, MX Z100 cell). The eluant was collected in intervals of 15 s (fraction collector III, Waters, France) and counted in the gamma well counter (WIZARD^2, PerkinElmer, France) to measure total activity. [^18F]UCB-H parent fraction was calculated as a percentage of the total radioactivity (metabolites and parent).
For each animal, a 2-exponential decay function was fitted to [^18F]UCB-H parent fraction, which was time multiplied with the plasma activity curve to obtain the metabolite-corrected arterial plasma input function (mcAIF) used for the kinetic modeling.

Work on `O=C1C[C@H](c2cc(F)c(F)c(F)c2)CN1Cc1ccncc1[18F]` [[^18F]UCB-H] yielded an intact parent fraction (15 min after tracer injection) of 37 ± 3.9%, an intact parent fraction (30 min after tracer injection) of 29.5 ± 3.4% and an intact parent fraction (60 min after tracer injection) of 19 ± 3.5%. For the same compound, the intact parent fraction (120 min after tracer injection) was 14.6 ± 1.9%, the intact parent fraction (240 min after tracer injection) was 4.4 ± 0.7% and the “plasma to whole-blood ratio” value (over the entire 120-min acquisition period) was 0.90 ± 0.05.

— paper PMC8026785, “The pharmacokinetics of [^18F]UCB-H revisited in the healthy non-human primate brain” (EJNMMI Research, 2021)
